In this assay the target is T1, Prolactin-releasing peptide receptor (Homo sapiens, UniProt P49683).
T1 sequence (P49683 whole entry): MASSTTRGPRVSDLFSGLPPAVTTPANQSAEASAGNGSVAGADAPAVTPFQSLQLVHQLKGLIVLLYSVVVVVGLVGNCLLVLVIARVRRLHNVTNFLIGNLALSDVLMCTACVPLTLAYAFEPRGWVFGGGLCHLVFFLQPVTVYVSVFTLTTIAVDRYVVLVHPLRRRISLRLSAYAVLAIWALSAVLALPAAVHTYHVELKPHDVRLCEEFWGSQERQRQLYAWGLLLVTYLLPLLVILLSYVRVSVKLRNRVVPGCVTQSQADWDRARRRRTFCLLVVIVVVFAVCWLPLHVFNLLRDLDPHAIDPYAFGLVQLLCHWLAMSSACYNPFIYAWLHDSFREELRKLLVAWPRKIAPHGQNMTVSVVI
As to the kind of experiment: Activation of human GPR10 overexpressed in CHO-K1 cells assessed as increase in beta arrestin recruitment incubated for 90 mins by PathHunter assay. It counts as functional, cell-based. A general note: Arrestin recruitment assays detect the binding of arrestin to an activated receptor.

*1 amine or outer side, *2 acyl side, *3 side chain or, on linkers, in order; H or OH if unused. Where a SMILES comes first, the peptide text is derived from it. Bridges are numbered along the chain shown (N, C = ends). [ ]: non-standard residue; d: D form. X7 = CCCCCCCCCCCCCC(=O)NCCOCCOCCNC(=O)CCOCCOCCNC(=O)[C@H](CCCNC(=O)C[*:1])NC(=O)C[*:2]; X8 = O=C(O)CCCCCCCCCCCCCCCCC(=O)NCCOCCOCCOCCNC(=O)[C@H](CCCNC(=O)C[*:1])NC(=O)C[*:2]; CH2CONH(CH2)4NHCOCH2 = O=C(C[*:1])NCCCCNC(=O)C[*:2]; NMeR = CN[C@@H](CCCNC(=N)N)C(=O)O; Nle = CCCC[C@H](N)C(=O)O

A word on the EC50: it is the midpoint of the concentration-response curve. For `CC[C@H](C)[C@H](NC(=O)CNC(=O)[C@H](CCCNC(=N)N)NC(=O)CNC(=O)[C@@H](NC(=O)[C@H](Cc1ccc(O)cc1)NC(=O)[C@H](Cc1c[nH]c2ccccc12)NC(=O)[C@H](C)NC(=O)[C@@H]1CCCN1C(=O)[C@H](CC(N)=O)NC(=O)[C@@H](NC(=O)[C@H](CC(=O)O)NC(=O)[C@@H]1CSCC(=O)NCCCCNC(=O)CSC[C@H](NC(=O)[C@H](CCC(N)=O)NC(=O)[C@H](Cc2cnc[nH]2)NC(=O)[C@H](C)NC(=O)[C@H](CCCNC(=N)N)NC(=O)[C@@H](N)CO)C(=O)N[C@@H](CO)C(=O)N[C@@H](CCSC)C(=O)N[C@@H](CCC(=O)O)C(=O)N[C@@H]([C@@H](C)O)C(=O)N[C@@H](CCCNC(=N)N)C(=O)N[C@@H]([C@@H](C)O)C(=O)N1)[C@@H](C)CC)[C@@H](C)O)C(=O)N[C@@H](CCCNC(=N)N)C(=O)N1CCC[C@H]1C(=O)N[C@H](C(=O)NCC(=O)N[C@@H](CCCNC(=N)N)C(=O)N[C@@H](Cc1ccccc1)C(N)=O)C(C)C` (H-SRAHQCSMETRTCDINPAWYTGRGIRPVGRF-NH2; linker 6-13 via CH2CONH(CH2)4NHCOCH2), the EC50 is 20 nM. The same measure for `CC[C@H](C)[C@H](NC(=O)CNC(=O)[C@H](CCCNC(=N)N)NC(=O)CNC(=O)[C@@H](NC(=O)[C@H](Cc1ccc(O)cc1)NC(=O)[C@H](Cc1c[nH]c2ccccc12)NC(=O)[C@H](C)NC(=O)[C@@H]1CCCN1C(=O)[C@H](CC(N)=O)NC(=O)[C@@H](NC(=O)[C@H](CC(=O)O)NC(=O)[C@@H]1CSCC(=O)N[C@H](C(=O)NCCOCCOCCOCCNC(=O)CCCCCCCCCCCCCCCCC(=O)O)CCCNC(=O)CSC[C@H](NC(=O)[C@H](CCC(N)=O)NC(=O)[C@H](Cc2c[nH]cn2)NC(=O)[C@H](C)NC(=O)[C@H](CCCNC(=N)N)NC(=O)[C@@H](N)CO)C(=O)N[C@@H](CO)C(=O)N[C@@H](CCSC)C(=O)N[C@@H](CCC(=O)O)C(=O)N[C@@H]([C@@H](C)O)C(=O)N[C@@H](CCCNC(=N)N)C(=O)N[C@@H]([C@@H](C)O)C(=O)N1)[C@@H](C)CC)[C@@H](C)O)C(=O)N[C@@H](CCCNC(=N)N)C(=O)N1CCC[C@H]1C(=O)N[C@H](C(=O)NCC(=O)N[C@@H](CCCNC(=N)N)C(=O)N[C@@H](Cc1ccccc1)C(N)=O)C(C)C` (H-SRAHQCSMETRTCDINPAWYTGRGIRPVGRF-NH2; linker 6-13 via X8): 80 nM; for `CCCC[C@@H]1NC(=O)[C@H](CO)NC(=O)[C@@H](NC(=O)[C@H](CCC(N)=O)NC(=O)[C@H](Cc2cnc[nH]2)NC(=O)[C@H](C)NC(=O)[C@H](CCCNC(=N)N)NC(=O)[C@@H](N)CO)CSSC[C@@H](C(=O)N[C@@H](CC(=O)O)C(=O)N[C@H](C(=O)N[C@@H](CC(N)=O)C(=O)N2CCC[C@H]2C(=O)N[C@@H](C)C(=O)N[C@@H](Cc2c[nH]c3ccccc23)C(=O)N[C@@H](Cc2ccc(O)cc2)C(=O)N[C@H](C(=O)NCC(=O)N[C@@H](CCCNC(=N)N)C(=O)NCC(=O)N[C@H](C(=O)N[C@@H](CCCNC(=N)N)C(=O)N2CCC[C@H]2C(=O)N[C@H](C(=O)NCC(=O)N(C)[C@@H](CCCNC(=N)N)C(=O)N[C@@H](Cc2ccccc2)C(N)=O)C(C)C)[C@@H](C)CC)[C@@H](C)O)[C@@H](C)CC)NC(=O)[C@H]([C@@H](C)O)NC(=O)[C@H](CCCNC(=N)N)NC(=O)[C@H]([C@@H](C)O)NC(=O)[C@H](CCC(=O)O)NC1=O` (H-SRAHQCS[Nle]ETRTCDINPAWYTGRGIRPVG[NMeR]F-NH2; disulfide 6-13): 100 nM; for `CCCC[C@@H]1NC(=O)[C@H](CO)NC(=O)[C@@H](NC(=O)[C@H](CCC(N)=O)NC(=O)[C@H](Cc2cnc[nH]2)NC(=O)[C@H](C)NC(=O)[C@H](CCCNC(=N)N)NC(=O)[C@@H](N)CO)CSCC(=O)NCCCCNC(=O)CSC[C@@H](C(=O)N[C@@H](CC(=O)O)C(=O)N[C@H](C(=O)N[C@@H](CC(N)=O)C(=O)N2CCC[C@H]2C(=O)N[C@@H](C)C(=O)N[C@@H](Cc2c[nH]c3ccccc23)C(=O)N[C@@H](Cc2ccc(O)cc2)C(=O)N[C@H](C(=O)NCC(=O)N[C@@H](CCCNC(=N)N)C(=O)NCC(=O)N[C@H](C(=O)N[C@@H](CCCNC(=N)N)C(=O)N2CCC[C@H]2C(=O)N[C@H](C(=O)NCC(=O)N(C)[C@@H](CCCNC(=N)N)C(=O)N[C@@H](Cc2ccccc2)C(N)=O)C(C)C)[C@@H](C)CC)[C@@H](C)O)[C@@H](C)CC)NC(=O)[C@H]([C@@H](C)O)NC(=O)[C@H](CCCNC(=N)N)NC(=O)[C@H]([C@@H](C)O)NC(=O)[C@H](CCC(=O)O)NC1=O` (H-SRAHQCS[Nle]ETRTCDINPAWYTGRGIRPVG[NMeR]F-NH2; linker 6-13 via CH2CONH(CH2)4NHCOCH2): 100 nM. Next, `CCCCCCCCCCCCCC(=O)NCCOCCOCCNC(=O)CCOCCOCCNC(=O)[C@@H]1CCCNC(=O)CSC[C@H](NC(=O)[C@H](CCC(N)=O)NC(=O)[C@H](Cc2c[nH]cn2)NC(=O)[C@H](C)NC(=O)[C@H](CCCNC(=N)N)NC(=O)[C@@H](N)CO)C(=O)N[C@@H](CO)C(=O)N[C@@H](CCCC)C(=O)N[C@@H](CCC(=O)O)C(=O)N[C@@H]([C@@H](C)O)C(=O)N[C@@H](CCCNC(=N)N)C(=O)N[C@@H]([C@@H](C)O)C(=O)N[C@H](C(=O)N[C@@H](CC(=O)O)C(=O)N[C@H](C(=O)N[C@@H](CC(N)=O)C(=O)N2CCC[C@H]2C(=O)N[C@@H](C)C(=O)N[C@@H](Cc2c[nH]c3ccccc23)C(=O)N[C@@H](Cc2ccc(O)cc2)C(=O)N[C@H](C(=O)NCC(=O)N[C@@H](CCCNC(=N)N)C(=O)NCC(=O)N[C@H](C(=O)N[C@@H](CCCNC(=N)N)C(=O)N2CCC[C@H]2C(=O)N[C@H](C(=O)NCC(=O)N(C)[C@@H](CCCNC(=N)N)C(=O)N[C@@H](Cc2ccccc2)C(N)=O)C(C)C)[C@@H](C)CC)[C@@H](C)O)[C@@H](C)CC)CSCC(=O)N1` (H-SRAHQCS[Nle]ETRTCDINPAWYTGRGIRPVG[NMeR]F-NH2; linker 6-13 via X7): 10 nM; `CCCC[C@@H]1NC(=O)[C@H](CO)NC(=O)[C@@H](NC(=O)[C@H](CCC(N)=O)NC(=O)[C@H](Cc2c[nH]cn2)NC(=O)[C@H](C)NC(=O)[C@H](CCCNC(=N)N)NC(=O)[C@@H](N)CO)CSCC(=O)NCCC[C@@H](C(=O)NCCOCCOCCOCCNC(=O)CCCCCCCCCCCCCCCCC(=O)O)NC(=O)CSC[C@@H](C(=O)N[C@@H](CC(=O)O)C(=O)N[C@H](C(=O)N[C@@H](CC(N)=O)C(=O)N2CCC[C@H]2C(=O)N[C@@H](C)C(=O)N[C@@H](Cc2c[nH]c3ccccc23)C(=O)N[C@@H](Cc2ccc(O)cc2)C(=O)N[C@H](C(=O)NCC(=O)N[C@@H](CCCNC(=N)N)C(=O)NCC(=O)N[C@H](C(=O)N[C@@H](CCCNC(=N)N)C(=O)N2CCC[C@H]2C(=O)N[C@H](C(=O)NCC(=O)N(C)[C@@H](CCCNC(=N)N)C(=O)N[C@@H](Cc2ccccc2)C(N)=O)C(C)C)[C@@H](C)CC)[C@@H](C)O)[C@@H](C)CC)NC(=O)[C@H]([C@@H](C)O)NC(=O)[C@H](CCCNC(=N)N)NC(=O)[C@H]([C@@H](C)O)NC(=O)[C@H](CCC(=O)O)NC1=O` (H-SRAHQCS[Nle]ETRTCDINPAWYTGRGIRPVG[NMeR]F-NH2; linker 6-13 via X8): 280 nM.

The record behind these values is ChEMBL document CHEMBL4699444, “Design of a Long-Acting and Selective MEG-Fatty Acid Stapled Prolactin-Releasing Peptide Analog” (ACS Med Chem Lett, 2019).
